How the values were obtained:
Cbl-b [1] = target: T1, Cbl-b (Homo sapiens, UniProt Q13191); test: Cbl-b Degradation Method A (FACS, anti-Cbl-b antibody staining); format: cell-based; conditions: Cbl-b-HiBit KI Jurkat Cells, incubated at least 20 hours; half maximal degradation; read-out: Cbl-b Degredation Method A IC50
T1 construct: Cbl-b-HiBit KI Jurkat Cells were purchased from Promega; host or cells: Cbl-b-HiBiT knock-in Jurkat cells
Summary of the method: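 Cbl-b-HiBit KI Jurkat cells treated with compound for at least 20 h at 37 °C, then fixed, permeabilized and stained with anti-Cbl-b antibody plus anti-rabbit AF488 secondary. Cbl-b levels read by FACS; DC50 and Dmax (percent of control) derived.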

Cbl-b [2] = target: T1, Cbl-b; test: Cbl-b Degradation Method B (Nano-Glo HiBiT lytic detection); format: cell-based; conditions: Cbl-b-HiBit KI Jurkat Cells, incubated at least 6-24 hours; half maximal degradation; read-out: Cbl-b Degredation Method B IC50
Summary of the method: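 Cbl-b-HiBiT knock-in Jurkat cells (20,000/well) were treated after ~24 h plating with an 11-point 1:3 series for 6-24 h at 37° C. Remaining Cbl-b measured by Nano-Glo HiBiT lytic luminescence. DC50 and Dmax expressed as % of control.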

T1 sequence (Q13191 whole entry): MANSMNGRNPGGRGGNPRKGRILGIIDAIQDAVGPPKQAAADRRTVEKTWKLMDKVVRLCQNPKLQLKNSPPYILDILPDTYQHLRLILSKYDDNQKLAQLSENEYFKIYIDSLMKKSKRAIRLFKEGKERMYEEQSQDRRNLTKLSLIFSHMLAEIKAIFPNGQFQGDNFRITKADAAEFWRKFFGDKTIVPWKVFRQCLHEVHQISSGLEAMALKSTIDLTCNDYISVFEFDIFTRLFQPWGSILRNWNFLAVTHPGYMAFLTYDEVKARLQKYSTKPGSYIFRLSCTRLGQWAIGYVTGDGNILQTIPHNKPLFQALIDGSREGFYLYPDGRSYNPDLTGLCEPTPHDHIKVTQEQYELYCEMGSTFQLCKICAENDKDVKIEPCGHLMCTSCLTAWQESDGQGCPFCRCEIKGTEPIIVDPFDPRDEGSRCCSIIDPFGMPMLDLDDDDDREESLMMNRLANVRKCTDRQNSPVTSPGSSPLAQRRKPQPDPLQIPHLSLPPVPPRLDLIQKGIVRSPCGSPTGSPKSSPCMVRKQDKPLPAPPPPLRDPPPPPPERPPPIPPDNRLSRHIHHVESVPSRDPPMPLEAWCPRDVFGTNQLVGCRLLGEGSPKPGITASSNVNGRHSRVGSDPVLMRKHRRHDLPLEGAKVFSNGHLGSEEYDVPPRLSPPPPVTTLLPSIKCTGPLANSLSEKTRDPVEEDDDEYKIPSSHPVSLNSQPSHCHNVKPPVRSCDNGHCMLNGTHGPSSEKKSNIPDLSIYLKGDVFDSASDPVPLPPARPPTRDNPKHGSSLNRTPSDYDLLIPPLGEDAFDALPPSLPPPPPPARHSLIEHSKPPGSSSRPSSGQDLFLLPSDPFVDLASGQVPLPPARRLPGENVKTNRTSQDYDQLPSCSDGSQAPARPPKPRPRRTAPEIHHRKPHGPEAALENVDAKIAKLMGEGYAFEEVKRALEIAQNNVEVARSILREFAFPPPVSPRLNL

- DC50 (Cbl-b [1]): > 500 nM
- DC50 (Cbl-b [2]): > 500 nM
Compound: Cn1cnnc1CC1(c2cccc(N3Cc4c(cc(CN5CCC(CN6CC(C7CN(c8ccc9c(c8)C(=O)N(C8CCC(=O)NC8=O)C9=O)C7)C6)CC5)cc4C(F)(F)F)C3=O)c2)COC1 (centres unmarked) [Example 83, 2-(2,6-dioxopiperidin-3-yl)-5-{1′-[(1-{[2-(3-{3-[(4-methyl-4H-1,2,4-triazol-3-yl)methyl]oxetan-3-yl}phenyl)-3-oxo-7-(trifluoromethyl)-2,3-dihydro-1H-isoindol-5-yl]methyl}piperidin-4-yl)methyl]-[3,3′-biazetidin]-1-yl}-2,3-dihydro-1H-isoindole-1,3-dione]

— patent US20260184710A1, “CASITAS B-LINEAGE LYMPHOMA PROTOONCOGENE B (CBL-B) DEGRADING COMPOUNDS AND ASSOCIATED METHODS OF USE” (Arvinas Operations, Inc., priority 2022, published 2026)
